EC50 and ED50 data for five compounds are collected here from US4146718A, “Alkyl 5,6-dichloro-3,4-dihydro-2(1H)-iminoquinazoline-3-acetate hydrohalides” (Bristol-Myers Company, priority 1978, dated 1979).

The test system of assay [1] is Rabbit - PRP (ADP- and collagen-induced platelet aggregation). Kind of assay: Aggregometry - Rabbit - PRP, In Vitro. It counts as cell-based. To be noted: Oryctolagus cuniculus. From the text: (§1) As stated above, the compound of Formula I is a known blood platelet antiaggregative agent. Table I compares the activities of the compound of Formula I and other known blood platelet antiaggregative agents in various antiaggregative and antithrombosis tests. Although the compounds of Formula III are primarily intended as intermediates in the preparation of the compound of Formula I, they themselves have blood platelet antiaggregative properties. For comparison purposes, one of the compounds of Formula III (R^1 = ethyl, X = bromo) is included in Table I. The tests referred to in Table I were conducted as set out in detail in J. S. Fleming, et al., Journal of Pharmacology and Experimental Therapeutics, 194, 435 (1975).
(§2) Antiaggregative and Antithrombosis Tests in Various In Vitro, Ex Vivo
(§3) Aggregometry - Rabbit - PRP
(§4) (μg/ml) (mg/kp ip) Biolaser
(§5) PRP = Platelet-rich plasma
(§6) ADP = Adenosine diphosphate

The test system is the same in assay [2]. Kind of assay: Aggregometry - Rabbit - PRP, Ex Vivo. It counts as in vivo. Conditions: Oryctolagus cuniculus, ip.
Excerpt: as §1, §2, §3, §4, §5, §6

Assay [3] relates to Biolaser Thrombosis. Kind of assay: In Vivo Animal Model: Rabbit Biolaser Thrombosis. To be noted: Oryctolagus cuniculus, read-out: ED50, Rabbit Biolaser Thrombosis.
Assay [4] relates to Electrical Thrombosis. Kind of assay: In Vivo Animal Model: Dog Electrical Thrombosis. To be noted: Canis lupus familiaris, read-out: ED50, Dog Electrical Thrombosis.
For assay [5], the system named is Endotoxin Shock. Kind of assay: In Vivo Animal Model: Rat Endotoxin Shock. To be noted: po.
Excerpt: as §1
In Vivo Animal Models ED50's (mg/kg)

The mark [6] stands for this setting: ADP, read-out: In Vitro EC50, ADP.
[7] abbreviates: Collagen, read-out: In Vitro EC50, Collagen.
[8] abbreviates: ADP, read-out: Ex Vivo ED50, ADP.
The mark [9] stands for this setting: Collagen, read-out: Ex Vivo ED50, Collagen.

≈ marks a conversion by molar mass, not a printed value. Where a name gives a salt, the structure may show the parent alone. Read-outs that look alike come from different tables or passages of the source.

By EC50 is commonly meant the midpoint of the concentration-response curve. As usually defined, the ED50 is the midpoint of the dose-response relation. Regarding `CC(=O)Oc1ccccc1C(=O)O` [Aspirin], the EC50 is > 512 µg/mL in assay [1] (setting [6]) and 7 µg/mL (≈ 38.9 µM) in assay [1] (setting [7]). Also, the ED50 in assay [2] (setting [8]) was > 100 mg/kg; in assay [2] (setting [9]) it was 3 mg/kg; in assay [3] (iv) it was > 60 mg/kg; in assay [4] (po) it was 50 mg/kg; in assay [5], > 256 mg/kg.

Consider `O=C1CN2Cc3c(ccc(Cl)c3Cl)N=C2N1` [Compound I, 6,7-dichloro-1,5-dihydroimidazo[2,1-b]quinazolin-2(3H)-one], for which the concentration giving a half-maximal response (EC50) was 0.3 µg/mL (≈ 1.17 µM) in assay [1] (setting [6]) and 0.08 µg/mL (≈ 0.312 µM) in assay [1] (setting [7]). Also, the ED50 in assay [2] (setting [8]) is 1.25 mg/kg; in assay [2] (setting [9]), 1 mg/kg; in assay [3] (rabbit, po), 2.5 mg/kg; in assay [4] (dog, po) it was 1.5 mg/kg; in assay [5], 25 mg/kg.

With `CCOC(=O)CN1Cc2c(ccc(Cl)c2Cl)NC1=N` [Compound III, Ethyl 5,6-Dichloro-3,4-dihydro-2(1H)-iminoquinazoline-3-acetate Hydrobromide], the EC50 in assay [1] (setting [6]) was 9 µg/mL; in assay [1] (setting [7]), 3.6 µg/mL.

Regarding `OCCN(CCO)c1nc(N2CCCCC2)c2nc(N(CCO)CCO)nc(N3CCCCC3)c2n1` [Dipyridamole], the 50% effective concentration (EC50) in assay [1] (setting [6]) is > 512 µg/mL. Also, the median effective dose (ED50) in assay [2] (setting [8]) was > 100 mg/kg; in assay [2] (setting [9]) it was > 100 mg/kg; in assay [3] (rabbit, iv) it was > 60 mg/kg; in assay [4] (dog, ip), > 35 mg/kg; in assay [5], > 256 mg/kg.

As to `O=C1C(CC[S+]([O-])c2ccccc2)C(=O)N(c2ccccc2)N1c1ccccc1` (centres unmarked) [Sulfinpyrazone], the EC50 was > 512 µg/mL in assay [1] (setting [6]) and 62 µg/mL (≈ 153 µM) in assay [1] (setting [7]). Further, the ED50 was > 100 mg/kg in assay [2] (setting [8]); 3 mg/kg in assay [2] (setting [9]); > 60 mg/kg in assay [3] (rabbit, iv); > 100 mg/kg in assay [4] (dog, po); > 128 mg/kg in assay [5].
